The text below walks through data of patent publication US9416115B2, “Fused heterocyclic compounds as ion channel modulators” (Gilead Sciences, Inc., priority 2013, dated 2016).

One test concerns the target hNav1.1 (SCN1A) (Homo sapiens, UniProt P35498). Nature of the test: Use-dependent inhibition of the CNS Nav1.1 sodium channel. The settings on record: use-dependent block, 25 Hz, pulse 20, read-out: Nav1.1 UDB 25 Hz 10 uM. In kind it is cell-based. In short, it runs like this: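 HEK-293 cells stably expressing WT hNav1.1, automated whole-cell patch clamp at 23-25 °C with CsF-based internal and NaCl external solutions, pH 7.35. Compound applied twice, 200 s equilibration; block measured at pulse 20 of a 25 Hz train (0 mV, 20 ms) from −120 mV, as mean % inhibition versus compound-free.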

For test [1], the target named is wild-type human cardiac sodium channel, hNav1.5 (Homo sapiens, UniProt Q14524). Nature of the test: Late INa screening assay (QPatch whole cell patch clamp, Tefluthrin-induced late current). In kind it is cell-based. The settings on record: HEK293 hNav1.5, percent block of late INa. In short, it runs like this: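 HEK293 cells stably expressing hNav1.5 without beta subunits were whole-cell patch clamped at 23-25 °C, stepping from −120 to −20 mV for 250 ms at 0.1 Hz. Late current (240–265 ms) was induced with 10 μM Tefluthrin, and compounds were added typically at 0.3 or 1 μM. Percent block was taken against 0 Na baseline with rundown correction.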
wild-type human cardiac sodium channel, hNav1.5, sequence (Q14524 whole entry): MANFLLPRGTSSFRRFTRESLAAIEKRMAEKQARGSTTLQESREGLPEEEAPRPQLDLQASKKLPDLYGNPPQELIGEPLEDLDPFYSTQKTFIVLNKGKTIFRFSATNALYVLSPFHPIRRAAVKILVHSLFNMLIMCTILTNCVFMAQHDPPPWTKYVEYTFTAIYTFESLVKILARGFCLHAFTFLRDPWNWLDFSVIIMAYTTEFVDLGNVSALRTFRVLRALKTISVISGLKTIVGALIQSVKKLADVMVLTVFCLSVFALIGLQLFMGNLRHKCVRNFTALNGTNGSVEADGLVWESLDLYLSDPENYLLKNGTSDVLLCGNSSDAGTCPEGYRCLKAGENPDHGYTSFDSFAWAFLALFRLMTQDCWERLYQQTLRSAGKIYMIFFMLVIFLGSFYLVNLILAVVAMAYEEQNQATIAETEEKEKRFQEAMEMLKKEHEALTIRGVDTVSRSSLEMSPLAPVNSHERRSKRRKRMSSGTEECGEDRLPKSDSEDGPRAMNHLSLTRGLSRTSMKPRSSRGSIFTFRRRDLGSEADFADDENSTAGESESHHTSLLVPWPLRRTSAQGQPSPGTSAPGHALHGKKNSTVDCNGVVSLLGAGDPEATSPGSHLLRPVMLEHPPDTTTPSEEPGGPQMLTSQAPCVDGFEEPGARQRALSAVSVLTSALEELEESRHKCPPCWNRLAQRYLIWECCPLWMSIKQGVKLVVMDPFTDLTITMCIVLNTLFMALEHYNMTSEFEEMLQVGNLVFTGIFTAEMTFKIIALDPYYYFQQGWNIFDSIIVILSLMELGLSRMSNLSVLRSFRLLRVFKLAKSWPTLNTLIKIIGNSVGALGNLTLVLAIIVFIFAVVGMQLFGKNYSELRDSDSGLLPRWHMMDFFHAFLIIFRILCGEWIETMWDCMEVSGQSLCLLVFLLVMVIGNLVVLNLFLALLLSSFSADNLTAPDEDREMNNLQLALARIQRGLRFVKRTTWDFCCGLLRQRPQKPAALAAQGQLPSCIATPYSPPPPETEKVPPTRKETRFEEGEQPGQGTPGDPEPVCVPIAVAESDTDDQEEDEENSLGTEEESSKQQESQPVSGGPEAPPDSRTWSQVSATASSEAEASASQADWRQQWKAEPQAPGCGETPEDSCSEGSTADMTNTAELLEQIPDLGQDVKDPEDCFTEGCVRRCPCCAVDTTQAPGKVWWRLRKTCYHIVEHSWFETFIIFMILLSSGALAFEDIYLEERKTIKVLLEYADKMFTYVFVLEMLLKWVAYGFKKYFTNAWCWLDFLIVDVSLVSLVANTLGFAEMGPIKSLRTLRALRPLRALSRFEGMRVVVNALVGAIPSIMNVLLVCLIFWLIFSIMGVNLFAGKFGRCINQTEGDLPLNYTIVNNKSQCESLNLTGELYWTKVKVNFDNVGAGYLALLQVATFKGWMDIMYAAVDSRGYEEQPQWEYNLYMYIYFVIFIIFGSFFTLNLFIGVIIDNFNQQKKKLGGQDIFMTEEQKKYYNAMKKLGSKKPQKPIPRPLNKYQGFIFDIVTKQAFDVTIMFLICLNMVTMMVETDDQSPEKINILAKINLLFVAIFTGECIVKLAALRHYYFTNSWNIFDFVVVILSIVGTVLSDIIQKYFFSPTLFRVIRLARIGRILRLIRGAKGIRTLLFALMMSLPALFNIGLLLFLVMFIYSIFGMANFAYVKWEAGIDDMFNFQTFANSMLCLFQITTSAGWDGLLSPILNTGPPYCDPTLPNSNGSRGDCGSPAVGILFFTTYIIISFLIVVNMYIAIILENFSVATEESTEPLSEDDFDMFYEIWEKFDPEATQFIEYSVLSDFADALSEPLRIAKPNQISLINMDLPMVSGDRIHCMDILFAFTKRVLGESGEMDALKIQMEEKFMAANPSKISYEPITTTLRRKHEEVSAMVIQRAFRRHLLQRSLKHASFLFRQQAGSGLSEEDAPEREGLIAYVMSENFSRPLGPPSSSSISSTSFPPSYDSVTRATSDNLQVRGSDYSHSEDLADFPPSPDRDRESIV

Structures are written as SMILES.

Regarding `N#CCOc1noc2ccc(-c3ccc(OC(F)(F)F)cc3)cc12` [Example 103, 2-((5-(4-(trifluoromethoxy)phenyl)benzo[d]isoxazol-3-yl)oxy)acetonitrile], the inhibition at 10 µM at hNav1.1 (SCN1A) is 8.5%. Further, the inhibition at 1 µM in test [1] was 38.9%.
In the same order, the values of `FC(F)(F)Oc1ccc(-c2ccc3onc(NCc4ncccn4)c3c2)cc1` [Example 126, N-(pyrimidin-2-ylmethyl)-5-(4-(trifluoromethoxy)phenyl)benzo[d]isoxazol-3-amine] are less than 5% and 50%.
For `CN1CCC[C@H]1COc1noc2ccc(-c3ccc(OC(F)(F)F)cc3)cc12` [Example 71, (S)-3-((1-methylpyrrolidin-2-yl)methoxy)-5-(4-(trifluoromethoxy)phenyl)benzo[d]isoxazole], the inhibition at 10 µM on hNav1.1 (SCN1A) was found to be 93.8%. In test [1], this compound registered an inhibition at 0.3 µM of 41.7% and an inhibition at 1 µM of 81.5%.
In the same order, the values of `Cc1nccnc1COc1noc2ccc(-c3ccc(OC(F)(F)F)cc3)cc12` [Example 152, 3-((3-methylpyrazin-2-yl)methoxy)-5-(4-(trifluoromethoxy)phenyl)benzo[d]isoxazole] are 11.4%, 19.8% and 53.4%.
With `FC(F)(F)Oc1ccc(-c2ccc3onc(OCCNc4ncccn4)c3c2)cc1` [Example 123, N-(2-((5-(4-(trifluoromethoxy)phenyl)benzo[d]isoxazol-3-yl)oxy)ethyl)pyrimidin-2-amine], on hNav1.1 (SCN1A), the inhibition at 10 µM was less than 5%. This compound gave an inhibition at 1 µM in test [1] of 36.3%.
Regarding `FC(F)(F)c1ccc(-c2ccc3onc(OCc4ncccn4)c3c2)cc1` [Example 9, 3-(pyrimidin-2-ylmethoxy)-5-(4-(trifluoromethyl)phenyl)benzo[d]isoxazole], at hNav1.1 (SCN1A), the inhibition at 10 µM was less than 5%. Further, in test [1], the inhibition at 0.3 µM was 36.4% and the inhibition at 1 µM came to 58.9%.
Regarding `Fc1cc(C(F)(F)F)ccc1-c1ccc2onc(OCc3ncccn3)c2c1` [Example 6, 5-(2-fluoro-4-(trifluoromethyl)phenyl)-3-(pyrimidin-2-ylmethoxy)benzo[d]isoxazole], the inhibition at 10 µM at hNav1.1 (SCN1A) was less than 5%. Further, the inhibition at 1 µM in test [1] amounted to 51.1%.
In the same order, the values of `Cc1cc(-c2ccc(OC(F)(F)F)cc2)cc2c(OCc3nnc(C4CC4)o3)noc12` [Example 105, 3-((5-cyclopropyl-1,3,4-oxadiazol-2-yl)methoxy)-7-methyl-5-(4-(trifluoromethoxy)phenyl)benzo[d]isoxazole] are 75.7% and 53.7%.
With `O=C1CCCN1CCOc1noc2ccc(-c3ccc(OC(F)(F)F)cc3)cc12` [Example 59, 1-(2-((5-(4-(trifluoromethoxy)phenyl)benzo[d]isoxazol-3-yl)oxy)ethyl)pyrrolidin-2-one], on hNav1.1 (SCN1A), the inhibition at 10 µM was 46.9%. In test [1], this compound returned an inhibition at 0.3 µM of 43.7% and an inhibition at 1 µM of 60.4%.
As to `CN(C)c1noc2ccc(-c3ccc(OC(F)(F)F)cc3)cc12` [Example 133, N,N-dimethyl-5-(4-(trifluoromethoxy)phenyl)benzo[d]isoxazol-3-amine], the inhibition at 10 µM on hNav1.1 (SCN1A) worked out at 22.1%. The inhibition at 1 µM in test [1] was 45.8%.
In the same order, the values of `CC(C)NC(=O)COc1noc2ccc(-c3ccc(OC(F)(F)F)cc3)cc12` [Example 122, N-isopropyl-2-((5-(4-(trifluoromethoxy)phenyl)benzo[d]isoxazol-3-yl)oxy)acetamide] are less than 5% and 41.3%.
In the case of `FC(F)(F)Oc1ccc(-c2ccc3onc(-n4cnc(C(F)(F)F)c4)c3c2)cc1` [Example 145, 5-(4-(trifluoromethoxy)phenyl)-3-(4-(trifluoromethyl)-1H-imidazol-1-yl)benzo[d]isoxazole], on hNav1.1 (SCN1A), the inhibition at 10 µM was found to be 81.4%. In addition, in test [1], the inhibition at 0.3 µM stood at 61.7% and the inhibition at 1 µM is 84.9%.
In the same order, the values of `O=C1NCC[C@H]1Oc1noc2ccc(-c3ccc(OC(F)(F)F)cc3)cc12` [Example 72, (R)-3-((5-(4-(trifluoromethoxy)phenyl)benzo[d]isoxazol-3-yl)oxy)pyrrolidin-2-one] are 78.1%, 14% and 57.4%.
Consider `Fc1cc(-c2ccc(OC(F)(F)F)cc2)cc2c(OCc3nnc(C4CC4)o3)noc12` [Example 104, 3-((5-cyclopropyl-1,3,4-oxadiazol-2-yl)methoxy)-7-fluoro-5-(4-(trifluoromethoxy)phenyl)benzo[d]isoxazole], for which the inhibition at 10 µM at hNav1.1 (SCN1A) was 53.1%. In test [1], the inhibition at 1 µM turned out to be 38.6%.
In the case of `O=C1OCCN1CCOc1noc2ccc(-c3ccc(OC(F)(F)F)cc3)cc12` [Example 75, 3-(2-((5-(4-(trifluoromethoxy)phenyl)benzo[d]isoxazol-3-yl)oxy)ethyl)oxazolidin-2-one], the inhibition at 10 µM on hNav1.1 (SCN1A) amounted to 34.2%. Besides, in test [1], the inhibition at 0.3 µM is 29.3% and the inhibition at 1 µM worked out at 59.5%.
Consider `Cc1nnc(C(C)Oc2noc3ccc(-c4ccc(OC(F)(F)F)cc4)cc23)o1` (stereo not shown) [Example 153, 3-(1-(5-methyl-1,3,4-oxadiazol-2-yl)ethoxy)-5-(4-(trifluoromethoxy)phenyl)benzo[d]isoxazole], for which the inhibition at 10 µM at hNav1.1 (SCN1A) was found to be 73.1%. In test [1], the inhibition at 0.3 µM turned out to be 51.3% and the inhibition at 1 µM was 67.6%.
In the same order, the values of `CC(=O)N1CCOC[C@H]1COc1noc2ccc(-c3ccc(OC(F)(F)F)cc3)cc12` [Example 115, (S)-1-(3-(((5-(4-(trifluoromethoxy)phenyl)benzo[d]isoxazol-3-yl)oxy)methyl)morpholino)ethan-1-one] are 76.4%, 23.5% and 56.7%.
`FC(F)(F)Oc1ccc(-c2ccc3onc(-n4ccnc4)c3c2)cc1` [Example 132, 3-(1H-imidazol-1-yl)-5-(4-(trifluoromethoxy)phenyl)benzo[d]isoxazole]: the inhibition at 10 µM on hNav1.1 (SCN1A) was less than 5%. In test [1], this compound showed an inhibition at 1 µM of 40.5%.
As for `FC(F)(F)Oc1ccc(-c2ccc3onc(OCc4ncccn4)c3c2)cc1` [Example 1, 3-(pyrimidin-2-ylmethoxy)-5-(4-(trifluoromethoxy)phenyl)benzo[d]isoxazole], at hNav1.1 (SCN1A), the inhibition at 10 µM is 5.5%. In test [1], the inhibition at 0.3 µM came to 55% and the inhibition at 1 µM is 66.2%.
On to `FC(F)(F)Oc1ccc(-c2ccc3onc(OCCn4cncn4)c3c2)cc1` [Example 58, 3-(2-(1H-1,2,4-triazol-1-yl)ethoxy)-5-(4-(trifluoromethoxy)phenyl)benzo[d]isoxazole], for which the inhibition at 10 µM on hNav1.1 (SCN1A) was 43.5%. In addition, in test [1], the inhibition at 0.3 µM was found to be 36.7% and the inhibition at 1 µM amounted to 55%.
Turning to `FC(F)(F)Oc1ccc(-c2ccc3onc(Oc4ncccn4)c3c2)cc1` [Example 124, 3-(pyrimidin-2-yloxy)-5-(4-(trifluoromethoxy)phenyl)benzo[d]isoxazole], the inhibition at 10 µM at hNav1.1 (SCN1A) came to 35%. This compound came in with an inhibition at 1 µM in test [1] of 53.7%.
In the same order, the values of `FC(F)(F)Oc1ccc(-c2ccc3onc(NCCn4cncn4)c3c2)cc1` [Example 137, N-(2-(1H-1,2,4-triazol-1-yl)ethyl)-5-(4-(trifluoromethoxy)phenyl)benzo[d]isoxazol-3-amine] are 82.6% and 47.2%.
In the same order, the values of `FC(F)(F)Oc1ccc(-c2ccc3onc(-n4cnc(Cl)c4)c3c2)cc1` [Example 140, 3-(4-chloro-1H-imidazol-1-yl)-5-(4-(trifluoromethoxy)phenyl)benzo[d]isoxazole] are less than 5% and 37.6%.
Turning to `Cc1ccnc(COc2noc3ccc(-c4ccc(OC(F)(F)F)cc4)cc23)n1` [Example 5, 3-((4-methylpyrimidin-2-yl)methoxy)-5-(4-(trifluoromethoxy)phenyl)benzo[d]isoxazole], the inhibition at 10 µM at hNav1.1 (SCN1A) was less than 5%. In test [1], the inhibition at 0.3 µM was determined as 38.2% and the inhibition at 1 µM came to 54.5%.
For `CC(C)c1nnc(COc2noc3ccc(-c4ccc(OC(F)(F)F)cc4)cc23)o1` [Example 100, 3-((5-isopropyl-1,3,4-oxadiazol-2-yl)methoxy)-5-(4-(trifluoromethoxy)phenyl)benzo[d]isoxazole], the inhibition at 10 µM on hNav1.1 (SCN1A) was found to be 9.9%. In test [1], this compound came in with an inhibition at 0.3 µM of 31.7% and an inhibition at 1 µM of 61.9%.
As to `COc1cc2onc(OCc3ncccn3)c2cc1-c1ccc(Cl)c(F)c1` [Example 13, 5-(4-chloro-3-fluorophenyl)-6-methoxy-3-(pyrimidin-2-ylmethoxy)benzo[d]isoxazole], on hNav1.1 (SCN1A), the inhibition at 10 µM was found to be 30.8%. In addition, in test [1], the inhibition at 1 µM was found to be 35.1%.
Regarding `CC(C)[C@H](N)COc1noc2ccc(-c3ccc(OC(F)(F)F)cc3)cc12` [Example 118, (S)-3-methyl-1-((5-(4-(trifluoromethoxy)phenyl)benzo[d]isoxazol-3-yl)oxy)butan-2-amine], the inhibition at 10 µM at hNav1.1 (SCN1A) came out at 89.4%. In test [1], this compound showed an inhibition at 0.3 µM of 22.5% and an inhibition at 1 µM of 66.1%.
Regarding `COc1cc2onc(OCc3ncccn3)c2cc1-c1ccc(OC(F)(F)F)c(C)c1` [Example 14, 6-methoxy-5-(3-methyl-4-(trifluoromethoxy)phenyl)-3-(pyrimidin-2-ylmethoxy)benzo[d]isoxazole], the inhibition at 10 µM on hNav1.1 (SCN1A) stood at 34.5%. For the same compound, in test [1], the inhibition at 1 µM was 46.7%.
